Data reported in ChEMBL document CHEMBL1201862, “PubChem BioAssay data set” (2004).
Calls of active or inactive are those of the source.

Tests used:
[1] = growth suppression of PTEN-null colon cells, dose response, cell-based, HCT116 PTEN knockout (AID 1047); format: functional;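 note: HCT116 colon tumor cells with PTEN knocked out; cells exposed to compound for 60 hours before readout; potency for loss of cell viability measured by luminescence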
[2] = growth suppression of beta-catenin-knockout colon cells, dose response, cell-based, HCT116, human colon tumor (AID 1045); format: functional;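 note: HCT116 colon tumor cells with beta catenin knocked out; cells exposed to compound for 60 hours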
Vero = assay: cells; format: functional; settings: Chlorocebus sabaeus
cells [3] = format: functional
[4] = molecular target: FAD-linked sulfhydryl oxidase ALR (Homo sapiens, UniProt P55789); assay: inhibitors of human ALR sulfhydryl oxidase, dose response, biochemical, H2O2 detection, luminescence, cherry-pick (AID 493248)
cells [5] = format: functional, cell-based
cells [6] = format: functional, cell-based; remark: listed apart in the source
[7] = molecular target: T1, Replicative DNA helicase DnaB (Mycobacterium tuberculosis, UniProt P9WMR3); assay: DnaB intein splicing inhibitors, dose response, biochemical, cell-free fluorescence (AID 449749); format: functional
T1 sequence (P9WMR3 whole entry): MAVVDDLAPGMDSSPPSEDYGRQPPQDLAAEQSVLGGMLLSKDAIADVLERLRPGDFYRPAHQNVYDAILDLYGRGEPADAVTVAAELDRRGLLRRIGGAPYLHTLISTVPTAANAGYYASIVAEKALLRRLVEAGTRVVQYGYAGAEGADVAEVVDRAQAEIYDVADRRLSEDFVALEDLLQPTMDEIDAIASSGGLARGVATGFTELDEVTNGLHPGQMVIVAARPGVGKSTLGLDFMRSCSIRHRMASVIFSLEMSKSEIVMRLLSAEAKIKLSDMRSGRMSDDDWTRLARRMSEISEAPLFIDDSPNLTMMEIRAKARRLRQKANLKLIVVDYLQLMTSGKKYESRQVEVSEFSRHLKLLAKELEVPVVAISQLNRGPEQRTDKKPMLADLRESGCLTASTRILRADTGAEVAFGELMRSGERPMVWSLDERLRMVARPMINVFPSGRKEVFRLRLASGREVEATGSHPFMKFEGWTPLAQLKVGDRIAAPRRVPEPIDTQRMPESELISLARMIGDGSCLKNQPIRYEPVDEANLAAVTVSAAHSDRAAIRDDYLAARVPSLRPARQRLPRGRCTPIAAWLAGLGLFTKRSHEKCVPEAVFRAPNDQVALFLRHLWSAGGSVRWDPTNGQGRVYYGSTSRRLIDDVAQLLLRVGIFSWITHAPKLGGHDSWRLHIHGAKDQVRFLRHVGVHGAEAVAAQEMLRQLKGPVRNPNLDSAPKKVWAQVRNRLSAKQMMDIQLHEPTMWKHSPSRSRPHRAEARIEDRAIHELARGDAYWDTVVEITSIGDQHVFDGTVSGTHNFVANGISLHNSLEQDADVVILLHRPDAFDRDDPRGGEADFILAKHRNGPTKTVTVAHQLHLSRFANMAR

Protein RecA = molecular target: T2, Protein RecA (Mycobacterium tuberculosis, UniProt P9WHJ3); assay: Fluorescence Cell-Free Homogeneous Dose Retest to Identify Inhibitors of RecA-Intein Splicing Activity. [Related pubchem assays (depositor defined):AID2097, AID2223, AID489010, AID492950]; format: functional
T2 sequence (P9WHJ3 whole entry): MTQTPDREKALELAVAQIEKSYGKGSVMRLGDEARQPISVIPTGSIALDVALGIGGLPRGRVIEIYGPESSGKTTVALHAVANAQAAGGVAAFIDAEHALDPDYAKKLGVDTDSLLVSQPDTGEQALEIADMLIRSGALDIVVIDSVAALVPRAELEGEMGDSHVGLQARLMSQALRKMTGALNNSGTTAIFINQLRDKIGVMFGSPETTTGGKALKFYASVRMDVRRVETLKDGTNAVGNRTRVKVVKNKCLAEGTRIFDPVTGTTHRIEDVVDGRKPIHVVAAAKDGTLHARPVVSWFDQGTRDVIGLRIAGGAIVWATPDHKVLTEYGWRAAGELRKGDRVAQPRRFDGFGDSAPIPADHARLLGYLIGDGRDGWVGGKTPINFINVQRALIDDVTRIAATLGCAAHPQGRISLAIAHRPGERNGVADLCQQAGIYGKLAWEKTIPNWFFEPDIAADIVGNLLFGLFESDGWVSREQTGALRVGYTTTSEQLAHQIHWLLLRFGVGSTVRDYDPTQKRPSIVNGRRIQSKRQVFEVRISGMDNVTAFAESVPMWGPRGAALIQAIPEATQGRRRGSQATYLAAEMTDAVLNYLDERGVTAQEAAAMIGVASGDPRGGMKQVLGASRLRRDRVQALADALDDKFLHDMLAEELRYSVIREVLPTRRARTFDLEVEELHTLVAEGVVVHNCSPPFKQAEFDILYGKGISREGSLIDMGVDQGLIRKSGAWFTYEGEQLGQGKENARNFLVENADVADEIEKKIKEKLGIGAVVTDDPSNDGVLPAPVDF

Fatty acid synthase [8] = molecular target: T3, Fatty acid synthase (Homo sapiens, UniProt P49327); assay: FAS thioesterase domain inhibitors, dose response, biochemical, endpoint fluorescence intensity, uHTS hits (AID 624327); format: functional;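 note: fluorescence from hydrolysis of an O-methyl fluorescein acyl ester substrate by the enzyme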
Fatty acid synthase [9] = molecular target: T3, Fatty acid synthase; assay: FAS thioesterase domain inhibitors, dose response, biochemical, kinetic fluorescence intensity (AID 624326); format: functional;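 note: rate of fluorescence rise from hydrolysis of a fluorogenic O-methyl fluorescein ester substrate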
[10] = Luminescence Cell-Based Dose Retest to Confirm Inhibitors of Cancer Stem Cells. [Related pubchem assays (depositor defined):AID2717, AID2721]; format: functional; settings: Homo sapiens
Paired box protein Pax-8 = Paired box protein Pax-8 (Homo sapiens, UniProt Q06710); assay: inhibitors of PAX8-driven TPO luciferase reporter, dose response, RMG-I cells, cherry-pick (AID 687027); format: functional, cell-based;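 note: luciferase reporter driven by Pax8 target thyroperoxidase promoter measured by SteadyGlo luminescence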
Paired box protein Pax-8, sequence (Q06710 whole entry): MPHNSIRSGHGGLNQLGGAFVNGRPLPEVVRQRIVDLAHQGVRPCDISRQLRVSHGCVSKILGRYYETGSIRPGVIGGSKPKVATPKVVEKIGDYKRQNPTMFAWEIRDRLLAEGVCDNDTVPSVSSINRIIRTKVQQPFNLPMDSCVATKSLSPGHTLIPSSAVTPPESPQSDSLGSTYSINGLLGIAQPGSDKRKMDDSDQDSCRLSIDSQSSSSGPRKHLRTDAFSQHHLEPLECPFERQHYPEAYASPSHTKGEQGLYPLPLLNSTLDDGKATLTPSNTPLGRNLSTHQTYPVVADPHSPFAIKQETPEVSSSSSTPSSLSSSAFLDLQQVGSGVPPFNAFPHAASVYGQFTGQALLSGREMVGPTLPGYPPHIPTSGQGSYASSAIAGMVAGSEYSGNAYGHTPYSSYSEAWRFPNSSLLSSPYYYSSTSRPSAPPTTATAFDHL

FAD-linked sulfhydryl oxidase ALR, sequence (P55789 whole entry): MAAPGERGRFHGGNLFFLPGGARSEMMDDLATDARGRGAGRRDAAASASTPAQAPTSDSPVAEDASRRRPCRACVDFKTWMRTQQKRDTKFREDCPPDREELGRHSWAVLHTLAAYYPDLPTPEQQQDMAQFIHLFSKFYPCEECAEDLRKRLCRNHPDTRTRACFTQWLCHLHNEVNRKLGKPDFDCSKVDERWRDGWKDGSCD
T3 sequence (P49327 whole entry, the tested form may be a part): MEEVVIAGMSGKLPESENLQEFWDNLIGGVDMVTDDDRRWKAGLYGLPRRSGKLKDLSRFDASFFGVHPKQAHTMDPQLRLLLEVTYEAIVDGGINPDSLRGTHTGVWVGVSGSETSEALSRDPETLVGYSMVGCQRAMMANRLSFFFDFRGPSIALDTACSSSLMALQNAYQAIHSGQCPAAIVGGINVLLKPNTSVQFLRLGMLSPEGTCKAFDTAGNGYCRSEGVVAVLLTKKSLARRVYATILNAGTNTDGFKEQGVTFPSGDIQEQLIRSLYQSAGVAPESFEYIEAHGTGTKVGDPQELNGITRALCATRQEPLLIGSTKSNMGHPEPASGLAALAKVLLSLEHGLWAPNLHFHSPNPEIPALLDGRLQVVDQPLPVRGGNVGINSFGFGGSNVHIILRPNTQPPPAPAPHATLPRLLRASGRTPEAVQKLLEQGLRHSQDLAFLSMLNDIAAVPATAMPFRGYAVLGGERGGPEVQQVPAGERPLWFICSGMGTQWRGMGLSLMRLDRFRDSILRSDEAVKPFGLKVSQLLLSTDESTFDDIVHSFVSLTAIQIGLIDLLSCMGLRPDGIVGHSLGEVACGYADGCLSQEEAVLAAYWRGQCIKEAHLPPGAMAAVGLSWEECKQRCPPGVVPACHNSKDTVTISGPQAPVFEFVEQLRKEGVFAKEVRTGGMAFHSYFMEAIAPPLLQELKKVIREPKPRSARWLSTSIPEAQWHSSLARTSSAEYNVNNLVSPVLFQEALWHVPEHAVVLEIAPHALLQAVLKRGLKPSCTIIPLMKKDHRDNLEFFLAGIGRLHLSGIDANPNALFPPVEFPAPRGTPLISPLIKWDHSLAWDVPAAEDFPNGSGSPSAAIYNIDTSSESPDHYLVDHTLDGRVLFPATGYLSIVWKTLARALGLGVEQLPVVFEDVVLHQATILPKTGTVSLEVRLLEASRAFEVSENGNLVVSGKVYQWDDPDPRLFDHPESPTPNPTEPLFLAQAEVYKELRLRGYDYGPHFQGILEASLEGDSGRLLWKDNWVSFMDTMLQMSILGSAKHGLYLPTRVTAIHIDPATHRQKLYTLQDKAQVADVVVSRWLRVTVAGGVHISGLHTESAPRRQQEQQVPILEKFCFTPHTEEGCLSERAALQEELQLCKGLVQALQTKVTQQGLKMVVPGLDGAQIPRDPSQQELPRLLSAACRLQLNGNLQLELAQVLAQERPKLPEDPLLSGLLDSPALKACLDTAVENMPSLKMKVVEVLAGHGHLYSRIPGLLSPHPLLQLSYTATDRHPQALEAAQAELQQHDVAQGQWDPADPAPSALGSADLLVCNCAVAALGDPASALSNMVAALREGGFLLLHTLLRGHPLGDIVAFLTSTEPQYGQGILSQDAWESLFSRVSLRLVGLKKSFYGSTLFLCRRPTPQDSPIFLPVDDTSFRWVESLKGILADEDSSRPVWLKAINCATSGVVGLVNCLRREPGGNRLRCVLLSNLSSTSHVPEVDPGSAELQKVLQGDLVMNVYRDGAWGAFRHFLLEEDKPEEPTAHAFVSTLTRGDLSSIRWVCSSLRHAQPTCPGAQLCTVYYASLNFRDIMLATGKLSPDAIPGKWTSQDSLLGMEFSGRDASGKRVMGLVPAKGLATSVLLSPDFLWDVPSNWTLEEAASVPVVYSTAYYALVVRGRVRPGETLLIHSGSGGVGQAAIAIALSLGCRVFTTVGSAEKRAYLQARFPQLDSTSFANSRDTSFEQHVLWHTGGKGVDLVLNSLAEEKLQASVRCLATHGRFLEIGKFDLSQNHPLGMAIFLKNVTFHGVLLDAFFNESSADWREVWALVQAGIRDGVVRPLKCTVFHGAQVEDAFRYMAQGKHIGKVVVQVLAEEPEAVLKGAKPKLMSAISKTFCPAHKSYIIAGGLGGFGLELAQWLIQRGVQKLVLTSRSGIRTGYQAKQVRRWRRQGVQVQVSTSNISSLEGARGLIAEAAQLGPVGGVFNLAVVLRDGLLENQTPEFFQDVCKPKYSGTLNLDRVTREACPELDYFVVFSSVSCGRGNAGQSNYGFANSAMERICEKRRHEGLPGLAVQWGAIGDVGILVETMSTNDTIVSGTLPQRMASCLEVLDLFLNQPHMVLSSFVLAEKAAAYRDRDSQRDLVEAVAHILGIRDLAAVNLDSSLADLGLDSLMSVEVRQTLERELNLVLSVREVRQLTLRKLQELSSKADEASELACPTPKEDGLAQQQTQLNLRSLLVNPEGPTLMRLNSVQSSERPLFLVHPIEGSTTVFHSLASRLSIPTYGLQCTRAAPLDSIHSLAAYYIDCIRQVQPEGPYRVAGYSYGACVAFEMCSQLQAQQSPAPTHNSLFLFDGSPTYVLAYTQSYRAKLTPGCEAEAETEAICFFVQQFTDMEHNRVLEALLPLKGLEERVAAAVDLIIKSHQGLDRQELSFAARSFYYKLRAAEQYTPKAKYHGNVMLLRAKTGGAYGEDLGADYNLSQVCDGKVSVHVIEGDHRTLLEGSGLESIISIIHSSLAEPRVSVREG

**Q.** With CC(C)CCn1c(SCCc2ccccc2)nc2c1c(=O)[nH]c(=O)n2C as the molecule, how does the EC50 [1] read?
**A.** 30.9 µM (active)

**Q.** And the EC50 [2]?
**A.** 35.6 µM (active)

**Q.** For CC1(C)CC(=O)CC(C2(O)C(=O)N(Cc3ccccc3)c3ccccc32)O1 (stereo unspecified), which EC50 [1] is on record?
**A.** 17.7 µM (active)

**Q.** What about the EC50 [2] of the same molecule?
**A.** 17.4 µM (active)

**Q.** For CC(=O)Nc1ccc(S(=O)(=O)N2CN(c3ccc(C)cc3)c3nc4ccccc4nc32)cc1, which CC50 (Vero) is on record?
**A.** > 25 µM (active)

**Q.** With Cc1cccc(NC(=O)COc2ccc(Br)cc2)n1 as the molecule, how does the IC50 (cells [3]) read?
**A.** 23.4 µM (active)

**Q.** For Cc1ccc(-c2nc(Nc3cccc(C)c3)sc2CC(=O)O)cc1, which AC50 [4] is on record?
**A.** 9.95 µM (active)

**Q.** Which AC50 [4] does the source give for COc1cc(C(=O)NCC(c2cccnc2)N2CCN(c3ccccc3)CC2)cc(OC)c1OC (stereo unspecified) here?
**A.** 3.41 µM (active)

**Q.** For Cc1ccc(C(=O)NC(=S)NNS(=O)(=O)c2ccc(C)cc2)cc1, which EC50 (cells [5]) is on record?
**A.** > 350 µM (not active)

**Q.** What about the EC50 (cells [6]) of the same molecule?
**A.** > 350 µM (not active)

**Q.** What about the AC50 [7] of the same molecule?
**A.** 58.9 µM (active)

**Q.** What about the EC50 (Protein RecA) of the same molecule?
**A.** 146 µM (active)

**Q.** For Cn1c(CNc2ccc(Br)cc2)nc2ccccc21, which AC50 [4] is on record?
**A.** 14.6 µM (active)

**Q.** For COc1ccc(C(CC(=O)Nc2ccccc2OC)n2cccc2)cc1 (stereo unspecified), which EC50 (cells [5]) is on record?
**A.** > 350 µM (not active)

**Q.** And the EC50 (cells [6])?
**A.** 2.27 µM (active)

**Q.** For CCOC(=O)COc1ccc2c(=O)cc(-c3ccccc3)oc2c1 [EFLOXATE], which IC50 (cells [3]) is on record?
**A.** < 0.1 µM (active)

**Q.** With COc1cccc(NC(=S)N(CCCN2CCOCC2)Cc2cn(C)c3ccccc23)c1 as the molecule, how does the EC50 (cells [5]) read?
**A.** > 350 µM (not active)

**Q.** What about the EC50 (cells [6]) of the same molecule?
**A.** > 350 µM (not active)

**Q.** With CCc1nonc1NC(=O)COc1ccc(Cl)c(C)c1 as the molecule, how does the IC50 (cells [3]) read?
**A.** 17 µM (active)

**Q.** Which AC50 [4] does the source give for CCCCn1c(NC(C)CC)nc2c1c(=O)[nH]c(=O)n2C (stereo unspecified) here?
**A.** 4.01 µM (active)

**Q.** Which AC50 [4] does the source give for Cc1cccc(C)c1NC(=O)NCCCN1CCN(c2ccccc2)CC1 here?
**A.** 89.4 µM (active)

**Q.** What does the source list for COc1cc(N(C(=O)Cc2cccs2)C(C(=O)NC2CCCCC2)c2ccc(C)cc2)ccc1-n1cnnn1 (stereo unspecified)?
**A.** EC50 [1]: 8.44 µM (active); EC50 [2]: 8.86 µM (active)

**Q.** With CN(Cc1cnn(-c2ccccc2)c1)C(=O)c1ccc(S(=O)(=O)NCc2ccco2)cc1 as the molecule, how does the CC50 (Vero) read?
**A.** 14.4 µM (active)

**Q.** For Cc1noc(/C=C/c2ccco2)c1S(=O)(=O)N1CCC(C(=O)N2CCc3ccccc3C2)CC1, which EC50 [1] is on record?
**A.** 24.8 µM (active)

**Q.** What about the EC50 [2] of the same molecule?
**A.** 26.9 µM (active)

**Q.** What does the source list for O=[N+]([O-])c1cc(-c2csc(NCCc3nc4cc(C(F)(F)F)ccc4n3CCCO)n2)ccc1Cl?
**A.** IC50 (Fatty acid synthase [8]): 5.17 µM (active); IC50 (Fatty acid synthase [9]): 3.93 µM (active)

**Q.** Which AC50 [10] does the source give for Cc1nnc2sc(SCc3cccc(Cl)c3)nn2c1=O here?
**A.** 34.2 µM (active)

**Q.** And the AC50 [4]?
**A.** 0.175 µM (active)

**Q.** For C[C@@H]1CN([C@H](C)CO)C(=O)c2cc(NC(=O)Nc3ccc(C(F)(F)F)cc3)ccc2O[C@@H](C)CCCCO[C@H]1CN(C)Cc1ccc(Cl)c(Cl)c1, which AC50 (Paired box protein Pax-8) is on record?
**A.** 6.74 µM (active)
